Source: paper PMC10850145, “Hormonal steroids induce multidrug resistance and stress response genes in Neisseria gonorrhoeae by binding to MtrR” (Nature Communications, 2024)
Several values for one entry are separate records, joined by “and”; a condition that tells them apart may be missing. Equal entries are not always repeated. Where two headings read alike, the source gives them in different places.

Experiments:
[1] = biological target: T1, MtrR binding to mtrCDE operator (21mer) (Neisseria gonorrhoeae, UniProt P39897); experiment: Fluorescence polarization based DNA binding assay, mtrCDE operator; conditions: mtrCDE 21mer + 125 µM steroid
T1 construct: Hexa-histidine tag with TEV protease cleavage site (N, cleaved yes); made in house; host or cells: E. coli Rosetta Gami B(DE3) pLysS
Method: Fluorescence polarization based-DNA binding data were collected using a Panvera Beacon 2000 fluorescence polarization system (Invitrogen) and analyzed with Prism (Graphpad Software 9, 10). Purified MtrR was buffer exchanged into “DNA” binding buffer (150 mM NaCl, 20 mM Tris-HCl pH 7.5, 2.5% glycerol, 1 mM TCEP). […] The reported oligoduplexes containing the rpoH and mtrCDE binding site differ in lengths, 27mer and 21mer, respectively[17],[21]. […] BSA and dI-dC are included as carriers and to control for nonspecific DNA binding. Samples were excited at 490 nm and polarized emissions measured at 530 nm. Controls were run with no protein (DNA ± methanol, hormonal steroids) to ensure that millipolarization values were not affected by experimental conditions alone. The binding affinity of protein for DNA was determined using the following equation: P = Pf + (Pb – Pf) [M] / (Kd + [M]) where P is the measured polarization, Pf is the polarization of free DNA, Pb is the polarization of the completely bound DNA, Kd is the equilibrium dissociation constant, and M is the concentration of protein. Pb and Kd were determined by nonlinear least-squares analysis. At least three independent experimental measurements were averaged for each reported binding constant.

gonococcal strain FA19 = experiment: MIC of steroidal hormones on GC agar, strain FA19; format: cell-based; conditions: Neisseria gonorrhoeae
Method: To determine the minimal inhibitory concentrations (MICs) by the steroidal hormones and their effect on antimicrobial susceptibility, 5 x 10^5 CFU and 1:5 serial dilutions of gonococcal strains were spotted on GC agar plates containing different concentrations of antibiotics and/or hormones as indicated. Antimicrobial susceptibility was assessed after 24 h incubation.
Table S1. Steroidal hormones are substrates of the MtrCDE efflux pump
Progesterone Testosterone
*Minimal inhibition concentration is defined by the lowest concentration at which visible growth is […]

[2] = strain FA19, GC agar, read-out: MIC

T1 sequence (P39897 whole entry): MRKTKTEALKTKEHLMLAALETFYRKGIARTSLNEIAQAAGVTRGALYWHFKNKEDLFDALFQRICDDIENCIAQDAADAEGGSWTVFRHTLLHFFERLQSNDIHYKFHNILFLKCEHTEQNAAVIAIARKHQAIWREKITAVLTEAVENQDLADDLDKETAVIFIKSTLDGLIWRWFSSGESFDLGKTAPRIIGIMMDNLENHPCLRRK

| SMILES | fluorescence polarization, MtrR titration ([1]; MtrR WT dimer 0.00 nM) [mP] | fluorescence polarization, MtrR titration ([1]; MtrR WT dimer 11.32 nM) | fluorescence polarization, MtrR titration ([1]; MtrR WT dimer 16.21 nM) | fluorescence polarization, MtrR titration ([1]; MtrR WT dimer 35.50 nM) | fluorescence polarization, MtrR titration ([1]; MtrR WT dimer 73.35 nM) | fluorescence polarization, MtrR titration ([1]; MtrR WT dimer 110.67 nM) | fluorescence polarization, MtrR titration ([1]; MtrR WT dimer 147.65 nM) | fluorescence polarization, MtrR titration ([1]; MtrR WT dimer 220.59 nM) | fluorescence polarization, MtrR titration ([1]; MtrR WT dimer 292.55 nM) | fluorescence polarization, MtrR titration ([1]; MtrR WT dimer 363.86 nM) | fluorescence polarization, MtrR titration ([1]; MtrR WT dimer 434.54 nM) | fluorescence polarization, MtrR titration ([1]; MtrR WT dimer 504.61 nM) | fluorescence polarization, MtrR titration ([1]; MtrR WT dimer 574.07 nM) | fluorescence polarization, MtrR titration ([1]; MtrR WT dimer 711.46 nM) | fluorescence polarization, MtrR titration ([1]; MtrR WT dimer 848.00 nM) | MIC (gonococcal strain FA19; [2]) [mg/L] | fluorescence polarization, MtrR titration ([1]; MtrR WT dimer 6.35 nM) | MIC (gonococcal strain FA19; FA19, 24 h) [µM] | further results |
| --- | --- | --- | --- | --- | --- | --- | --- | --- | --- | --- | --- | --- | --- | --- | --- | --- | --- | --- | --- |
| CC(=O)[C@H]1CC[C@H]2[C@@H]3CCC4=CC(=O)CC[C@]4(C)[C@H]3CC[C@]12C [Progesterone, progesterone] | 0.00 | 7.37 mP and 3.83 mP and 6.23 mP | 8.61 mP and 4.53 mP and 7.86 mP | 11.01 mP and 7.99 mP and 10.09 mP | 14.94 mP and 12.16 mP and 13.46 mP | 19.14 mP and 15.56 mP and 17.23 mP | 23.64 mP and 19.79 mP and 21.69 mP | 29.74 mP and 25.09 mP and 27.23 mP | 32.91 mP and 28.39 mP and 31.63 mP | 35.71 mP and 31.19 mP and 34.99 mP | 39.37 mP and 32.93 mP and 37.49 mP | 40.97 mP and 36.33 mP and 40.13 mP | 43.64 mP and 38.96 mP and 42.59 mP | 46.37 mP and 42.63 mP and 45.23 mP | 49.37 mP and 45.06 mP and 48.53 mP | 40 |  |  | fluorescence polarization, MtrR titration ([1]; MtrR WT dimer 3.83 nM): 3.14 mP; fluorescence polarization, MtrR titration ([1]; MtrR WT dimer 8.85 nM): 6.47 mP; MIC (gonococcal strain FA19; strain FA19, GC agar, 24 h, read-out: MIC): 127 µM |
| C[C@]12CC[C@H]3[C@@H](CCC4=CC(=O)CC[C@@]43C)[C@@H]1CC[C@@H]2O [Testosterone, testosterone] | 0.00 | 5.67 mP and 3.54 mP and 4.04 mP | 6.61 mP and 4.54 mP and 5.44 mP | 8.17 mP and 7.34 mP and 6.54 mP | 11.31 mP and 10.71 mP and 11.67 mP | 14.21 mP and 12.44 mP and 14.87 mP | 16.64 mP and 15.47 mP and 17.31 mP | 21.64 mP and 18.07 mP and 21.37 mP | 24.51 mP and 22.87 mP and 24.21 mP | 27.31 mP and 26.01 mP and 26.94 mP | 29.54 mP and 28.57 mP and 30.57 mP | 32.14 mP and 30.37 mP and 33.41 mP | 34.11 mP and 32.41 mP and 35.04 mP | 38.41 mP and 36.24 mP and 38.57 mP | 41.31 mP and 39.27 mP and 42.47 mP |  | 2.61 mP and 1.77 mP and 1.84 mP | 555 | MIC (gonococcal strain FA19; FA19): 160 mg/L |
| C[C@]12CC[C@@H]3c4ccc(O)cc4CC[C@H]3[C@@H]1CC[C@@H]2O [β-Estradiol, β-estradiol] | 0.00 | 5.41 mP and 7.10 mP and 5.13 mP | 7.14 mP and 8.80 mP and 6.33 mP | 8.94 mP and 8.19 mP | 10.97 mP and 13.97 mP and 11.09 mP | 13.61 mP and 15.83 mP and 13.69 mP | 16.87 mP and 18.60 mP and 16.09 mP | 20.11 mP and 24.13 mP and 19.63 mP | 24.17 mP and 25.77 mP and 23.16 mP | 26.44 mP and 29.33 mP and 25.99 mP | 30.01 mP and 30.57 mP and 27.99 mP | 31.07 mP and 33.77 mP and 30.59 mP | 34.21 mP and 36.80 mP and 32.93 mP | 37.61 mP and 38.13 mP and 35.23 mP | 39.37 mP and 41.63 mP and 41.06 mP | > 320 | 4.51 mP and 6.27 mP and 3.99 mP | > 1180 |  |
